Test [1] addresses T1, GAS41 YEATS domain (Homo sapiens, UniProt O95619). Kind of test: Fluorescence polarization competition assay with H3K23crK27cr-FAM probe. The test is classed as binding. In general terms: Polarisation of emitted light reports the rotation of a fluorescent probe.
Target sequence in this assay (O95619 1-148): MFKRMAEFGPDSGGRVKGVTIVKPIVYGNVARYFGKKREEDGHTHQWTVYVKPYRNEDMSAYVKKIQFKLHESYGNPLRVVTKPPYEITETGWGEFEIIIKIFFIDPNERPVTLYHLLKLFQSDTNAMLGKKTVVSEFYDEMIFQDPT
In test [2] the target is his6-GAS41 YEATS (13-158) (Homo sapiens, UniProt O95619). Kind of test: AlphaLISA competition assay with 21-biot probe. On the technique in general: Bead proximity is the source of the signal in Alpha formats.
Sequence of his6-GAS41 YEATS (13-158) (O95619 13-158): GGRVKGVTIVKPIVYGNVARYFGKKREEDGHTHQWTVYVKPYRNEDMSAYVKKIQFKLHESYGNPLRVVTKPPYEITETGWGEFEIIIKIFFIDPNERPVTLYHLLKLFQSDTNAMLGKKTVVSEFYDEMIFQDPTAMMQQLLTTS
Test [3] concerns the target NanoLuc-tagged BRD4-BD1 and Halo-tagged histone H3.3 (Homo sapiens, UniProt O60885). The test can be described thus: BRD4-BD1 NanoBRET assay. The test is classed as cell-based. The conditions noted are these: Figure S3.
Another test concerns H1299 cells. Kind of test: Wound healing assay. The note with it: H1299, 24 h. Format: cell-based.
Test [4] addresses T1, GAS41 YEATS domain. The test can be described thus: 1H-15N HSQC NMR binding experiments. The conditions noted are these: 50 μM 15N GAS41 YEATS, 100 μM compound.
Target sequence in this assay (O95619 18-190): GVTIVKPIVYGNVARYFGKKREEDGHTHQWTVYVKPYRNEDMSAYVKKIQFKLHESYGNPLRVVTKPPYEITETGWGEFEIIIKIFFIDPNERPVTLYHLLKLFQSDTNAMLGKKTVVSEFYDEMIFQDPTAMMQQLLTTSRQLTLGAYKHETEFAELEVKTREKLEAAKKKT
Test [5] deals with NanoLUC-GAS41 and Halo-H3.3 (Homo sapiens, UniProt O95619). The test can be described thus: GAS41 NanoBRET assay in HEK293T cells. The test is classed as cell-based. For orientation: BRET reads energy transfer from a luciferase to a nearby fluorophore.
Sequence of NanoLUC-GAS41 and Halo-H3.3 (O95619 whole entry): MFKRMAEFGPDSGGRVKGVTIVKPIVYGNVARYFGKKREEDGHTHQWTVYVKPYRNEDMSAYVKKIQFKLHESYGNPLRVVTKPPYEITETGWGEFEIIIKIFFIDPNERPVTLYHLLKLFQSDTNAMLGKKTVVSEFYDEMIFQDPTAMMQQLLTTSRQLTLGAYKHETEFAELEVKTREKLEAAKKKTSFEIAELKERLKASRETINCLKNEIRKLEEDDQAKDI
The next test deals with CDKN1A. Kind of test: CDKN1A gene expression by RT-qPCR in H1299 cells. The test is classed as cell-based. The note with it: 7 days.

The text below walks through data of article PMC12880737 (Journal of medicinal chemistry, 2025).

What is called IC50 is the concentration needed to halve the response being measured.

Bounds are passed on as bounds.

In the case of `O=C(NCc1ccc(-c2cnc(C3CN(C(=O)c4ccc(NC(=O)[C@@H]5CCCN5)s4)C3)s2)cc1)C1CCCC1` [Compound 30, (S)-N-(5-(3-(5-(4-(cyclopentanecarboxamidomethyl)phenyl)thiazol-2-yl)azetidine-1-carbonyl)thiophen-2-yl)pyrrolidine-2-carboxamide], the IC50 was 1.3 ± 0.4 µM at GAS41 YEATS domain [1] and 0.6 ± 0.08 µM in test [2].
For `O=C(NCc1ccc(-c2cnc(C3CN(C(=O)c4ccc(NC(=O)[C@@H]5CCCN5)s4)C3)s2)cc1)c1ccccc1` [Compound 31, (S)-N-(5-(3-(5-(4-(benzamidomethyl)phenyl)thiazol-2-yl)azetidine-1-carbonyl)thiophen-2-yl)pyrrolidine-2-carboxamide] the same measures were 1.1 ± 0.01 µM and 0.2 ± 0.08 µM.
On the same counts, the results for `CC(=O)NCc1ccc(-c2cnc(C3CN(C(=O)c4ccc(NC(=O)[C@@H]5CCCN5)s4)C3)s2)c(Cl)c1` [Compound 35, (S)-N-(5-(3-(5-(4-(acetamidomethyl)-2-chlorophenyl)thiazol-2-yl)azetidine-1-carbonyl)thiophen-2-yl)pyrrolidine-2-carboxamide] are 3.4 ± 0.13 µM and 1.4 ± 0.33 µM.
For the compound `CCC(=O)NCc1ccc(-c2cnc(C3CN(C(=O)c4ccc(NC(=O)[C@@H]5CC(C)(C)CN5)s4)C3)s2)c2ccccc12` [Compound 39, (S)-4,4-dimethyl-N-(5-(3-(5-(4-(propionamidomethyl)naphthalen-1-yl)thiazol-2-yl)azetidine-1-carbonyl)thiophen-2-yl)pyrrolidine-2-carboxamide], the “activity in BRD4-BD1 NanoBRET assay” value in test [3] is “no activity”. The scratch healing result in the test on H1299 cells is reported as “slowed scratch healing”.
On to `CCC(=O)NCc1ccc(-c2cnc(C3CN(C(=O)c4cnc(NC(=O)[C@@H]5CC(C)(C)CN5)s4)C3)s2)c2ccccc12` [Compound 40, (S)-4,4-dimethyl-N-(5-(3-(5-(4-(propionamidomethyl)naphthalen-1-yl)thiazol-2-yl)azetidine-1-carbonyl)thiazol-2-yl)pyrrolidine-2-carboxamide], for which the “amide perturbations in 1H-15N HSQC NMR” value on GAS41 YEATS domain [4] was “no perturbations”. The values for the IC50 (in test [5]; at GAS41 YEATS domain [1]; in test [2]) were over 25 µM, 118 ± 7.7 µM and over 50 µM, respectively. Also, the “levels of CDKN1A” value with CDKN1A is given as “but not DLG-41nc strongly enhanced levels of CDKN1A”.
As to `Cc1sc2c(c1C)C(c1ccc(Cl)cc1)=N[C@@H](CC(=O)OC(C)(C)C)c1nnc(C)n1-2` [JQ1, reference compound], the “activity in GAS41 BRET assay” value in test [5] (Figure S3) was “no activity”.
